Experimental data from the supplement of paper PMC10307832.

Columns and labels:
Experiment in all cases: relative viability (nuclei count vs DMSO), 5 days (fraction); higher = more cells survive
Avagacestat = compound: NC(=O)[C@@H](CCC(F)(F)F)N(Cc1ccc(-c2ncon2)cc1F)S(=O)(=O)c1ccc(Cl)cc1 [Avagacestat]
Procedure, shortened: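 Viability is treated-well nuclei as a fraction of vehicle-well nuclei, reported as the median across plates. Before counting, lung cancer cell lines were kept overnight at 37 °C in 1536-well plates, pinned with five √10-spaced library-drug doses on vehicle-anchored plates, and left 5 days without medium change, then fixed, permeabilised and Hoechst-stained in one step, imaged at 4× and counted by MetaXpress. A plate passed only if control CV was below 25% and at least one doubling occurred.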

[1] = compound: NC(=O)[C@@H](CCC(F)(F)F)N(Cc1ccc(-c2ncon2)cc1F)S(=O)(=O)c1ccc(Cl)cc1 [Avagacestat] + CC(=O)c1c(C)c2cnc(Nc3ccc(N4CCNCC4)cn3)nc2n(C2CCCC2)c1=O [Palbociclib] (partner 0.5 µM)
Procedure, shortened: (§1)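 Lung cancer cell lines, seeded in 1536-well plates, were treated the following day by pin tool with a single drug or with five library-drug doses (not always all listed) in √10 steps on top of a fixed anchor-drug dose. Cells were fixed and nuclei stained in one step after 5 days, and nuclei were counted. Relative viability is the nuclei count for treated wells divided by that for vehicle wells, reported as medians of duplicate plates.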

Avagacestat + OSI-027 = compound: NC(=O)[C@@H](CCC(F)(F)F)N(Cc1ccc(-c2ncon2)cc1F)S(=O)(=O)c1ccc(Cl)cc1 [Avagacestat] + COc1cccc2cc(-c3nc([C@H]4CC[C@H](C(=O)O)CC4)n4ncnc(N)c34)[nH]c12 [OSI-027] (partner 0.5 µM)
Procedure, shortened: as §1

Avagacestat + Foretinib = compound: NC(=O)[C@@H](CCC(F)(F)F)N(Cc1ccc(-c2ncon2)cc1F)S(=O)(=O)c1ccc(Cl)cc1 [Avagacestat] + COc1cc2c(Oc3ccc(NC(=O)C4(C(=O)Nc5ccc(F)cc5)CC4)cc3F)ccnc2cc1OCCCN1CCOCC1 [Foretinib] (partner 0.25 µM)
Procedure, shortened: as §1

For NCI-H1395, the relative viability (Avagacestat; 0.08 µM) was 0.909, the relative viability (Avagacestat; 0.253 µM) was 0.903 and the relative viability (Avagacestat; 0.8 µM) was 0.97. The relative viability (Avagacestat; 2.53 µM) was 0.875, the relative viability (Avagacestat; 8 µM) was 0.861 and the relative viability ([1]; first compound 0.08 µM) was 0.675. It also gave a relative viability ([1]; first compound 0.253 µM) of 0.64, a relative viability ([1]; first compound 0.8 µM) of 0.594 and a relative viability ([1]; first compound 2.53 µM) of 0.486. The relative viability ([1]; first compound 8 µM) was 0.593, the relative viability (Avagacestat + OSI-027; first compound 0.08 µM) was 0.631 and the relative viability (Avagacestat + OSI-027; first compound 0.253 µM) was 0.633. For the same cell line, the relative viability (Avagacestat + OSI-027; first compound 0.8 µM) was 0.634, the relative viability (Avagacestat + OSI-027; first compound 2.53 µM) was 0.588 and the relative viability (Avagacestat + OSI-027; first compound 8 µM) was 0.626. For the same cell line, the relative viability (Avagacestat + Foretinib; first compound 0.08 µM) was 0.981, the relative viability (Avagacestat + Foretinib; first compound 0.253 µM) was 0.946 and the relative viability (Avagacestat + Foretinib; first compound 0.8 µM) was 0.903. For the same cell line, the relative viability (Avagacestat + Foretinib; first compound 2.53 µM) was 0.899 and the relative viability (Avagacestat + Foretinib; first compound 8 µM) was 0.846.

With NCI-H1437 the relative viability (Avagacestat; 0.08 µM) was 1.09, the relative viability (Avagacestat; 0.253 µM) was 0.997 and the relative viability (Avagacestat; 0.8 µM) was 1.1. The relative viability (Avagacestat; 2.53 µM) was 0.915, the relative viability (Avagacestat; 8 µM) was 0.877 and the relative viability ([1]; first compound 0.08 µM) was 0.329. For the same cell line, the relative viability ([1]; first compound 0.253 µM) was 0.341, the relative viability ([1]; first compound 0.8 µM) was 0.361 and the relative viability ([1]; first compound 2.53 µM) was 0.306. The relative viability ([1]; first compound 8 µM) was 0.294, the relative viability (Avagacestat + OSI-027; first compound 0.08 µM) was 0.924 and the relative viability (Avagacestat + OSI-027; first compound 0.253 µM) was 0.949. For the same cell line, the relative viability (Avagacestat + OSI-027; first compound 0.8 µM) was 0.817, the relative viability (Avagacestat + OSI-027; first compound 2.53 µM) was 0.856 and the relative viability (Avagacestat + OSI-027; first compound 8 µM) was 0.777. It also gave a relative viability (Avagacestat + Foretinib; first compound 0.08 µM) of 1.42, a relative viability (Avagacestat + Foretinib; first compound 0.253 µM) of 1.41 and a relative viability (Avagacestat + Foretinib; first compound 0.8 µM) of 1.27. The relative viability (Avagacestat + Foretinib; first compound 2.53 µM) was 1.23 and the relative viability (Avagacestat + Foretinib; first compound 8 µM) was 1.11.

NCI-H1650 was tested, and the relative viability (Avagacestat; 0.08 µM) was 1.1, the relative viability (Avagacestat; 0.253 µM) was 1.08 and the relative viability (Avagacestat; 0.8 µM) was 0.95. For the same cell line, the relative viability (Avagacestat; 2.53 µM) was 1.13, the relative viability (Avagacestat; 8 µM) was 0.881 and the relative viability ([1]; first compound 0.08 µM) was 0.318. For the same cell line, the relative viability ([1]; first compound 0.253 µM) was 0.241, the relative viability ([1]; first compound 0.8 µM) was 0.406 and the relative viability ([1]; first compound 2.53 µM) was 0.331. For the same cell line, the relative viability ([1]; first compound 8 µM) was 0.351, the relative viability (Avagacestat + OSI-027; first compound 0.08 µM) was 0.49 and the relative viability (Avagacestat + OSI-027; first compound 0.253 µM) was 0.671. The relative viability (Avagacestat + OSI-027; first compound 0.8 µM) was 0.643, the relative viability (Avagacestat + OSI-027; first compound 2.53 µM) was 0.782 and the relative viability (Avagacestat + OSI-027; first compound 8 µM) was 0.67. The relative viability (Avagacestat + Foretinib; first compound 0.08 µM) was 1.47, the relative viability (Avagacestat + Foretinib; first compound 0.253 µM) was 1.11 and the relative viability (Avagacestat + Foretinib; first compound 0.8 µM) was 1.06. The relative viability (Avagacestat + Foretinib; first compound 2.53 µM) was 1.04 and the relative viability (Avagacestat + Foretinib; first compound 8 µM) was 1.09.

NCI-H1651 showed a relative viability (Avagacestat; 0.08 µM) of 1.08, a relative viability (Avagacestat; 0.253 µM) of 1.09 and a relative viability (Avagacestat; 0.8 µM) of 1.13. For the same cell line, the relative viability (Avagacestat; 2.53 µM) was 0.98, the relative viability (Avagacestat; 8 µM) was 0.922 and the relative viability ([1]; first compound 0.08 µM) was 0.521. The relative viability ([1]; first compound 0.253 µM) was 0.51, the relative viability ([1]; first compound 0.8 µM) was 0.569 and the relative viability ([1]; first compound 2.53 µM) was 0.46. It also gave a relative viability ([1]; first compound 8 µM) of 0.504, a relative viability (Avagacestat + OSI-027; first compound 0.08 µM) of 0.761 and a relative viability (Avagacestat + OSI-027; first compound 0.253 µM) of 0.814. The relative viability (Avagacestat + OSI-027; first compound 0.8 µM) was 0.848, the relative viability (Avagacestat + OSI-027; first compound 2.53 µM) was 0.751 and the relative viability (Avagacestat + OSI-027; first compound 8 µM) was 0.656. For the same cell line, the relative viability (Avagacestat + Foretinib; first compound 0.08 µM) was 0.899, the relative viability (Avagacestat + Foretinib; first compound 0.253 µM) was 0.884 and the relative viability (Avagacestat + Foretinib; first compound 0.8 µM) was 0.895. The relative viability (Avagacestat + Foretinib; first compound 2.53 µM) was 0.847 and the relative viability (Avagacestat + Foretinib; first compound 8 µM) was 0.596.
